For experiment [1], the system named is NCI-H1703. Description: Induction of apoptosis in human NCI-H1703 cells assessed as necrotic cells at 5 uM measured after 72 hrs by PI/Annexin-V staining based flow cytometry analysis (reference value: 2.80% ). In kind it is functional.
The test system of experiment [2] is NCI-H1703. Briefly: Downregulation of CyclinD1 level in human NCI-H1703 cells at 3 to […] by Western blot analysis. Conditions: dose 3-7.5 µM. The format is functional, cell-based.
In experiment [3] the target is T1, Histone-lysine N-methyltransferase NSD2 (Homo sapiens) (UniProt O96028).
T1 sequence (whole entry): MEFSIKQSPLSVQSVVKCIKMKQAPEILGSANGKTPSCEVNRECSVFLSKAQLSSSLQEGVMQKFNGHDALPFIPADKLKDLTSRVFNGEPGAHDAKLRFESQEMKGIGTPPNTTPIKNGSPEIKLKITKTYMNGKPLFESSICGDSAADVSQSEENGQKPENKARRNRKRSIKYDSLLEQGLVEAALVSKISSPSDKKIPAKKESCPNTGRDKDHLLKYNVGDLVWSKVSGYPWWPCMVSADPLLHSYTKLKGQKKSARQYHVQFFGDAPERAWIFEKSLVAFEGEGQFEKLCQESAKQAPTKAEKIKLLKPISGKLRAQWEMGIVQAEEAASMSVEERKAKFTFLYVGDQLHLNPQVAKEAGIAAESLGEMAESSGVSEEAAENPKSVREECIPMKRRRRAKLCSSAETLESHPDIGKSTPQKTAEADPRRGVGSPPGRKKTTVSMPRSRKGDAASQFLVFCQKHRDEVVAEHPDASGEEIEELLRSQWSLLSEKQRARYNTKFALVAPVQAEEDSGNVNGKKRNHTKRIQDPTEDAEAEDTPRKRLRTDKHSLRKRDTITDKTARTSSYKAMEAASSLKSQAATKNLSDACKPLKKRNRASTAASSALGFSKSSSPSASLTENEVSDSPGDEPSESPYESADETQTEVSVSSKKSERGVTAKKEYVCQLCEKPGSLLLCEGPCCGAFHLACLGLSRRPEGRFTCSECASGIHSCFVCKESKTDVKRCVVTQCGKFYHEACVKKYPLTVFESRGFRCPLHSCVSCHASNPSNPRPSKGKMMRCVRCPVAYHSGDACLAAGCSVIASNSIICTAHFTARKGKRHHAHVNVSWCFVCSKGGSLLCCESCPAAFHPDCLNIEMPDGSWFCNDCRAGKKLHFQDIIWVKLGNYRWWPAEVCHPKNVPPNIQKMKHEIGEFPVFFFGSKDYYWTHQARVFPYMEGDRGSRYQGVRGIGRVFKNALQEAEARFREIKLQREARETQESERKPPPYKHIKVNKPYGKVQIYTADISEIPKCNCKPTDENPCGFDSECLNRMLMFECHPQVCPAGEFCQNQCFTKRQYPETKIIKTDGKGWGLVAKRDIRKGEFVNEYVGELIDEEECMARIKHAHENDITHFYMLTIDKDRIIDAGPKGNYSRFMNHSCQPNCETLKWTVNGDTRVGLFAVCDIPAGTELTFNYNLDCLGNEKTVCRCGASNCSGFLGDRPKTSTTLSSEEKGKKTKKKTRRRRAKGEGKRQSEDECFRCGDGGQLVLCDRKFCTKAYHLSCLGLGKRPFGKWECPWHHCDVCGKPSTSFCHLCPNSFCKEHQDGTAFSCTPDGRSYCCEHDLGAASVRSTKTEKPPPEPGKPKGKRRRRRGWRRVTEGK
Briefly: Induction of NSD2 degradation in human A549 cells at 5 to 10 uM incubated for 72 hrs by Western blot analysis. In kind it is cell-based. The settings on record: dose 5-10 µM.

Experiment [4] concerns the target T1, Histone-lysine N-methyltransferase NSD2 (Homo sapiens). Briefly: Induction of NSD2 degradation in human NCI-H1703 cells at 3 to […] incubated for 72 hrs by Western blot analysis. In kind it is cell-based. Conditions: dose 3-7.5 µM.
The subject of experiment [5] is NCI-H1703. Description: Induction of apoptosis in human NCI-H1703 cells assessed as late apoptotic cells at 10 uM measured after 72 hrs by PI/Annexin-V staining based flow cytometry analysis (reference value: 3.00% ). The format is functional.

Activity calls are given as the source filed them. No cut-off for these calls is given here.

For the molecule `Cc1cc(CNCCCCCCCCCCC(=O)N[C@H](C(=O)N2C[C@H](O)C[C@H]2C(=O)N[C@@H](C)c2ccc(-c3scnc3C)cc2)C(C)(C)C)cc(C)c1-c1ncn(C)c1-c1ccnc2cc(F)ccc12`, the Activity is 7.21% in the experiment on NCI-H1703 [1] and 62.9% in the experiment with NCI-H1703 [5]. Also, in the experiment with NCI-H1703 [2], the result was Active. The result in experiment [3] and in experiment [4] was inactive.

The record behind these values is ChEMBL document CHEMBL5338706, “Discovery of a potent and selective proteolysis targeting chimera (PROTAC) degrader of NSD3 histone methyltransferase” (Eur J Med Chem, 2022).
